Measurements taken from US11116760B2 (Gilead Sciences, Inc., priority 2018, dated 2021).
pEC50: −log10 of the molar value.

The compounds below were run against α4β7 integrin (Homo sapiens (Human), UniProt P13612+P26010) (assay: α4β7 Integrin Cell Capture Assay). Conditions: Table 1; capture of α4β7 expressing RPM18866 cells on MadCAM-1 extracellular domain-coated plate.
Format: cell-based

α4β7 integrin, sequence (P13612 34-1032): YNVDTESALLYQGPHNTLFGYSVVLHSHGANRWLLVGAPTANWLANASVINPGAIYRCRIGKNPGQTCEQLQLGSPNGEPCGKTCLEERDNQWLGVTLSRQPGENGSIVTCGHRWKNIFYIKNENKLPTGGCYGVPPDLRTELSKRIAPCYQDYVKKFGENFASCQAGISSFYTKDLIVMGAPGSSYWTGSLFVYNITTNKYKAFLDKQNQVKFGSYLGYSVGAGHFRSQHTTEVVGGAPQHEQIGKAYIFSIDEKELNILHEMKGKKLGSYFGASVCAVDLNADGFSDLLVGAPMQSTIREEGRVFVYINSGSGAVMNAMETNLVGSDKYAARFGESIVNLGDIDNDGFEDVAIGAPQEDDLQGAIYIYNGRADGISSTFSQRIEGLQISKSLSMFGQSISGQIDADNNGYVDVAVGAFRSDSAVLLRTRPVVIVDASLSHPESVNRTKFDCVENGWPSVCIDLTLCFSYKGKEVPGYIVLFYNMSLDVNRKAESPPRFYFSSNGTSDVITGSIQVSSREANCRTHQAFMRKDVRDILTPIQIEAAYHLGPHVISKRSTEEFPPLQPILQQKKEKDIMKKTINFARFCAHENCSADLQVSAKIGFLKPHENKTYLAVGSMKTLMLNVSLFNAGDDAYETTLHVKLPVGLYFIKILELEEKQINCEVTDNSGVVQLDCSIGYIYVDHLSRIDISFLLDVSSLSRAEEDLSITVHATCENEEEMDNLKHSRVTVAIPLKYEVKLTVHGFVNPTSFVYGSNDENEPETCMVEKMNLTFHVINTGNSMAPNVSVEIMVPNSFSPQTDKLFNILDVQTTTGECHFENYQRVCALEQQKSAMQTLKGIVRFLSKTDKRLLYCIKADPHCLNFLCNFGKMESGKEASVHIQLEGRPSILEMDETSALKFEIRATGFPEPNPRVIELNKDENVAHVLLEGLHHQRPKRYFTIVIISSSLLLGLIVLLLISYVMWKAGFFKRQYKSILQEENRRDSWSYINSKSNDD
α4β7 integrin, sequence (P26010 20-798): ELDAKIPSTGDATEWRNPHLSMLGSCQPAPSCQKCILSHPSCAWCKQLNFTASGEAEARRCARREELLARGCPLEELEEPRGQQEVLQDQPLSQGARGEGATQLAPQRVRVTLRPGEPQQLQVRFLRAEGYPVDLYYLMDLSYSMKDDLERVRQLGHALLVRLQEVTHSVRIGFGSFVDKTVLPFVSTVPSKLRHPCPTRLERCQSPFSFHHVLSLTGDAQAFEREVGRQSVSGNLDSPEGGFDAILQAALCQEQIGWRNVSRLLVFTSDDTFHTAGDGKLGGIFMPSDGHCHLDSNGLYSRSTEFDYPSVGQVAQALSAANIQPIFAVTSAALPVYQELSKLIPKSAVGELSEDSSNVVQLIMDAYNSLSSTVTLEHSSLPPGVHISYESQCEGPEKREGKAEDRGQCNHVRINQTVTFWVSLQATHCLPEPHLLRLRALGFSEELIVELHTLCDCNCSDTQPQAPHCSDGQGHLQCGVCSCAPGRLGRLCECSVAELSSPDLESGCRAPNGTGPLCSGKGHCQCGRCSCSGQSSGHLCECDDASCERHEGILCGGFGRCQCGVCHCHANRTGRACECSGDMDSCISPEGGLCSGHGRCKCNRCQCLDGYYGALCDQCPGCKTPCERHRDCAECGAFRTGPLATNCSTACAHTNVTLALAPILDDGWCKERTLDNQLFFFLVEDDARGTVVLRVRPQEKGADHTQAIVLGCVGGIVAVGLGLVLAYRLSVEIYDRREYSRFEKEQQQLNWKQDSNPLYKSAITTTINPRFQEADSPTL

Structure (SMILES)	pEC50
CC[C@@H](Nc1cc(F)c(C(=O)N[C@@H](Cc2ccc(-c3c(OC)c4ccccc4n(C)c3=O)c3ncccc23)C(=O)O)c(F)c1)C(F)(F)F [Example 122, (S)-2-(2,6-difluoro-4-(((R)-1,1,1-trifluorobutan-2-yl)amino)benzamido)-3-(4-methoxy-1-methyl-2-oxo-1,2-dihydro-[3,8′-biquinolin]-5′-yl)propanoic acid]	9.70
CC[C@@H](Nc1cc(F)c(C(=O)N[C@@H](Cc2ccc(-c3c(C(F)(F)F)c4ccccc4n(C)c3=O)c3ncccc23)C(=O)O)c(F)c1)C(F)(F)F [Example 123, (S)-2-(2,6-difluoro-4-(((R)-1,1,1-trifluorobutan-2-yl)amino)benzamido)-3-(1-methyl-2-oxo-4-(trifluoromethyl)-1,2-dihydro-[3,8′-biquinolin]-5′-yl)propanoic acid]	9.05
CC[C@@H](Nc1cc(F)c(C(=O)N[C@@H](Cc2ccc(-c3c(C(F)(F)F)c4c(n(C)c3=O)CCC4)c3ncccc23)C(=O)O)c(F)c1)C(F)(F)F [Example 126, (S)-2-(2,6-difluoro-4-(((R)-1,1,1-trifluorobutan-2-yl)amino)benzamido)-3-(8-(1-methyl-2-oxo-4-(trifluoromethyl)-2,5,6,7-tetrahydro-1H-cyclopenta[b]pyridin-3-yl)quinolin-5-yl)propanoic acid]	9.22
CC[C@@H](Nc1cc(F)c(C(=O)N[C@@H](Cc2ccc(-c3c(C)n(C)c4ccc(F)cc4c3=O)c3ncccc23)C(=O)O)c(F)c1)C(F)(F)F [Example 127, (S)-2-(2,6-difluoro-4-(((R)-1,1,1-trifluorobutan-2-yl)amino)benzamido)-3-(6-fluoro-1,2-dimethyl-4-oxo-1,4-dihydro-[3,8′-biquinolin]-5′-yl)propanoic acid]	8.03
Cc1cc(C(F)(F)F)c(-c2ccc(C[C@H](NC(=O)c3c(F)cc(N[C@H](C)C(F)(F)F)cc3F)C(=O)O)c3cccnc23)c(=O)n1C [Example 128, (S)-2-(2,6-difluoro-4-(((R)-1,1,1-trifluoropropan-2-yl)amino)benzamido)-3-(8-(1,6-dimethyl-2-oxo-4-(trifluoromethyl)-1,2-dihydropyridin-3-yl)quinolin-5-yl)propanoic acid]	9.52
Cc1cc(C(F)(F)F)c(-c2ccc(C[C@H](NC(=O)c3c(F)cc(N4CCCC[C@@H]4C(F)(F)F)cc3F)C(=O)O)c3cccnc23)c(=O)n1C [Example 129, (S)-2-(2,6-difluoro-4-((R)-2-(trifluoromethyl)piperidin-1-yl)benzamido)-3-(8-(1,6-dimethyl-2-oxo-4-(trifluoromethyl)-1,2-dihydropyridin-3-yl)quinolin-5-yl)propanoic acid]	9.15
Cc1cc(C(F)(F)F)c(-c2ccc(C[C@H](NC(=O)c3c(F)cc(N4CCOC[C@@H]4CC(F)F)cc3F)C(=O)O)c3cccnc23)c(=O)n1C [Example 130, (S)-2-(4-((S)-3-(2,2-difluoroethyl)morpholino)-2,6-difluorobenzamido)-3-(8-(1,6-dimethyl-2-oxo-4-(trifluoromethyl)-1,2-dihydropyridin-3-yl)quinolin-5-yl)propanoic acid]	9.30
Cc1cc(C(F)(F)F)c(-c2ccc(C[C@H](NC(=O)c3c(F)cc(N4CCOC[C@@H]4CC(F)(F)F)cc3F)C(=O)O)c3cccnc23)c(=O)n1C [Example 131, (S)-2-(2,6-difluoro-4-((S)-3-(2,2,2-trifluoroethyl)morpholino)benzamido)-3-(8-(1,6-dimethyl-2-oxo-4-(trifluoromethyl)-1,2-dihydropyridin-3-yl)quinolin-5-yl)propanoic acid]	9.10
Cc1cc(C(F)(F)F)c(-c2ccc(C[C@H](NC(=O)c3c(F)cc(N4CCC[C@@H]4C(F)(F)F)cc3F)C(=O)O)c3cccnc23)c(=O)n1C [Example 132, (S)-2-(2,6-difluoro-4-((R)-2-(trifluoromethyl)pyrrolidin-1-yl)benzamido)-3-(8-(1,6-dimethyl-2-oxo-4-(trifluoromethyl)-1,2-dihydropyridin-3-yl)quinolin-5-yl)propanoic acid]	8.89
CCCNc1cc(F)c(C(=O)N[C@@H](Cc2ccc(-c3c(C(F)(F)F)cc(C)n(C)c3=O)c3ncccc23)C(=O)O)c(F)c1 [Example 133, (S)-2-(2,6-difluoro-4-(propylamino)benzamido)-3-(8-(1,6-dimethyl-2-oxo-4-(trifluoromethyl)-1,2-dihydropyridin-3-yl)quinolin-5-yl)propanoic acid]	8.49
CC[C@H](C)Nc1cc(F)c(C(=O)N[C@@H](Cc2ccc(-c3c(C(F)(F)F)cc(C)n(C)c3=O)c3ncccc23)C(=O)O)c(F)c1 [Example 134, (S)-2-(4-(((S)-sec-butyl)amino)-2,6-difluorobenzamido)-3-(8-(1,6-dimethyl-2-oxo-4-(trifluoromethyl)-1,2-dihydropyridin-3-yl)quinolin-5-yl)propanoic acid]	8.38
CC[C@@H](N(C)c1cc(F)c(C(=O)N[C@@H](Cc2ccc(-c3c(C(F)(F)F)cc(C)n(C)c3=O)c3ncccc23)C(=O)O)c(F)c1)C(F)(F)F [Example 135, (S)-2-(2,6-difluoro-4-(methyl((R)-1,1,1-trifluorobutan-2-yl)amino)benzamido)-3-(8-(1,6-dimethyl-2-oxo-4-(trifluoromethyl)-1,2-dihydropyridin-3-yl)quinolin-5-yl)propanoic acid]	9.40
Cc1cc(C(F)(F)F)c(-c2ccc(C[C@H](NC(=O)c3c(F)cc(N4C[C@@H](C)OC[C@@H]4C(F)(F)F)cc3F)C(=O)O)c3cccnc23)c(=O)n1C [Example 136, (S)-2-(2,6-difluoro-4-((2R,5R)-2-methyl-5-(trifluoromethyl)morpholino)benzamido)-3-(8-(1,6-dimethyl-2-oxo-4-(trifluoromethyl)-1,2-dihydropyridin-3-yl)quinolin-5-yl)propanoic acid]	9.70
Cc1cc(C(F)(F)F)c(-c2ccc(C[C@H](NC(=O)c3c(F)cc(N4CCO[C@H](C)[C@@H]4C(F)(F)F)cc3F)C(=O)O)c3cccnc23)c(=O)n1C [Example 137, (S)-2-(2,6-difluoro-4-((2R,3R)-2-methyl-3-(trifluoromethyl)morpholino)benzamido)-3-(8-(1,6-dimethyl-2-oxo-4-(trifluoromethyl)-1,2-dihydropyridin-3-yl)quinolin-5-yl)propanoic acid]	9.40
CC[C@@H](Nc1cc(F)c(C(=O)N[C@@H](Cc2ccc(-c3c(C(F)(F)F)cc(C)n(C)c3=O)c3ncc(N(C)C)cc23)C(=O)O)c(F)c1)C(F)(F)F [Example 139, (S)-2-(2,6-difluoro-4-(((R)-1,1,1-trifluorobutan-2-yl)amino)benzamido)-3-(8-(1,6-dimethyl-2-oxo-4-(trifluoromethyl)-1,2-dihydropyridin-3-yl)-3-(dimethylamino)quinolin-5-yl)propanoic acid]	7.93
CC[C@@H](Nc1cc(F)c(C(=O)N[C@@H](Cc2ccc(-c3c(C(F)(F)F)cc(C)n(C)c3=O)c3ncc(F)cc23)C(=O)O)c(F)c1)C(F)(F)F [Example 140, (S)-2-(2,6-difluoro-4-(((R)-1,1,1-trifluorobutan-2-yl)amino)benzamido)-3-(8-(1,6-dimethyl-2-oxo-4-(trifluoromethyl)-1,2-dihydropyridin-3-yl)-3-fluoroquinolin-5-yl)propanoic acid]	9.30
Cc1cc(N2CCOC[C@@H]2C(F)(F)F)cc(F)c1C(=O)N[C@@H](Cc1ccc(-c2c(C(F)(F)F)cc(C)n(C)c2=O)c2ncccc12)C(=O)O [Example 141, (S)-3-(8-(1,6-dimethyl-2-oxo-4-(trifluoromethyl)-1,2-dihydropyridin-3-yl)quinolin-5-yl)-2-(2-fluoro-6-methyl-4-((R)-3-(trifluoromethyl)morpholino)benzamido)propanoic acid]	10.00
CC[C@@H](Nc1cc(C)c(C(=O)N[C@@H](Cc2ccc(-c3c(C(F)(F)F)cc(C)n(C)c3=O)c3ncccc23)C(=O)O)c(F)c1)C(F)(F)F [Example 142, (S)-3-(8-(1,6-dimethyl-2-oxo-4-(trifluoromethyl)-1,2-dihydropyridin-3-yl)quinolin-5-yl)-2-(2-fluoro-6-methyl-4-(((R)-1,1,1-trifluorobutan-2-yl)amino)benzamido)propanoic acid]	9.70
CC[C@@H](Nc1cc(Cl)c(C(=O)N[C@@H](Cc2ccc(-c3c(C(F)(F)F)cc(C)n(C)c3=O)c3ncccc23)C(=O)O)c(Cl)c1)C(F)(F)F [Example 143, (S)-2-(2,6-dichloro-4-(((R)-1,1,1-trifluorobutan-2-yl)amino)benzamido)-3-(8-(1,6-dimethyl-2-oxo-4-(trifluoromethyl)-1,2-dihydropyridin-3-yl)quinolin-5-yl)propanoic acid]	9.52
CC[C@@H](Nc1cc(F)c(C(=O)N[C@@H](Cc2ccc(-c3c(C(F)(F)F)cc(C)n(C)c3=O)c3ncccc23)C(=O)O)c(Cl)c1)C(F)(F)F [Example 144, (S)-2-(2-chloro-6-fluoro-4-(((R)-1,1,1-trifluorobutan-2-yl)amino)benzamido)-3-(8-(1,6-dimethyl-2-oxo-4-(trifluoromethyl)-1,2-dihydropyridin-3-yl)quinolin-5-yl)propanoic acid]	9.70
CC[C@@H](Nc1cc(F)c(C(=O)N[C@@H](Cc2ccc(-c3c(C(F)(F)F)cc(C)n(C)c3=O)c3ncccc23)C(=O)O)cc1C)C(F)(F)F [Example 145, (S)-3-(8-(1,6-dimethyl-2-oxo-4-(trifluoromethyl)-1,2-dihydropyridin-3-yl)quinolin-5-yl)-2-(2-fluoro-5-methyl-4-(((R)-1,1,1-trifluorobutan-2-yl)amino)benzamido)propanoic acid]	8.51
CC[C@@H](N1CCCc2c1cc(F)c(C(=O)N[C@@H](Cc1ccc(-c3c(C(F)(F)F)cc(C)n(C)c3=O)c3ncccc13)C(=O)O)c2F)C(F)(F)F [Example 146, (S)-2-(5,7-difluoro-1-((R)-1,1,1-trifluorobutan-2-yl)-1,2,3,4-tetrahydroquinoline-6-carboxamido)-3-(8-(1,6-dimethyl-2-oxo-4-(trifluoromethyl)-1,2-dihydropyridin-3-yl)quinolin-5-yl)propanoic acid]	9.22
N#Cc1ccc(-c2ccc(C[C@H](NC(=O)c3c(F)cc(N[C@@H](C4CC4)C(F)(F)F)cc3F)C(=O)O)c3cccnc23)c(Cl)c1 [Example 148]	7.22
